Experimental findings from US4861897A, “2-Aryloxyalkylaminobenzoxazoles and 2-aryloxyalkylaminobenzothiazoles” (Ortho Pharmaceutical Corporation, priority 1987, dated 1989) are described below.

For assay [1], the system named is cAMP stimulated parietal cells. Nature of the assay: Isolated parietal cell assay, inhibition of 14C-aminopyrine accumulation, dibutyryl cAMP stimulated. In kind it is cell-based, rabbit. Particulars: Oryctolagus cuniculus, 20 min, Example 48, 37° C., read-out: IC50 vcAMP (inhibition of 14C-AP accumulation in cAMP stimulated parietal cells). The method, then: (§1) Isolated Parietal Cell Assay
(§2) The isolated parietal cell assay was conducted using the procedures of Batzri, S. et al., Biochemica et Biophysica Acta 508, 328 (1978) and Soll, A. H. Am. J. Physiol. 238, G366 (1980). Basically, parietal cells were isolated from the fundic mucosa of rabbit stomachs by a four-stage collagenase digestion process. The supernatant fractions from the last two stages of this process contain the individual parietal cells. This cell suspension was centrifuged and reconstituted in a modified Hank's buffer to contain 1-2×10^6 cells/ml. […] This accumulation was stimulated by histamine and was blocked by H2 antagonists. The cells were incubated with 0.4-0.5×10^6 cpm ^14 C-AP, with various concentrations of histamine as a stimulant, 1×10^-5 M isobutylmethylxanthine, and the test compound added in a 20 μl volume of buffer or DMSO. The flasks were incubated in a shaking water bath at 37° C. for 20 minutes. Two aliquots were then taken from each flask and cell pellets were collected by centrifugation. The pellets were solubilized with Protosol (New England Nuclear) and radioactivity determined by liquid scintillation spectrometry. Data is presented as the IC50 vhist, the concentration of compound required to inhibit ^14 C-AP accumulation in the histamine stimulated parietal cell by 50%. When dibutyryl cAMP was used to stimulate the cells instead of histamine, a similar inhibition of ^14 C-AP accumulation was measured and the data are presented as the IC50 vcAMP, the concentration required to inhibit ^14 C-AP accumulation in the cAMP stimulated parietal cells by 50%.

The test system of assay [2] is histamine stimulated parietal cell. Nature of the assay: Isolated parietal cell assay, inhibition of 14C-aminopyrine accumulation, histamine stimulated. The settings on record: Oryctolagus cuniculus, 20 min, Example 48, 37° C., read-out: IC50 vhist (inhibition of 14C-AP accumulation in histamine stimulated parietal cell). It is filed as cell-based, rabbit. The method, then: as §1, §2

For assay [3], the target named is T1, parietal cell H^+ K^+ ATPase (Oryctolagus cuniculus, UniProt P27112).
T1 construct: determined in fundic mucosa from New Zealand white rabbits which were homogenized; from tissue; host or cells: fundic mucosa of New Zealand white rabbits, homogenized; membrane protein
Nature of the assay: Inhibition of parietal cell H+ K+ ATPase. It is filed as biochemical, New Zealand white rabbits. Particulars: Example 49; for inhibition at 100 µM: @ 10^-4 M, read-out: % Inhibition at Concentration (H+ K+ ATPase); for IC50: given as "50% @ x μM", read-out: % Inhibition at Concentration (H+ K+ ATPase): concentration given for 50% inhibition. The method, then:
Inhibition of Parietal Cell H^+ K^+ ATPase
The activity was measured in a 1 ml incubation volume containing 50 mM Tris pH 7.4, 2 mM MgCl2, 2 mM Na2 ATP, with or without 20 mM KCl and vehicle control (dimethylsulfoxide) or test compound added in a 0.02 ml volume. Typically, 20-50 μg membrane protein was added and the tubes were preincubated with test compound for 10 minutes at 37° C. Substrate, Na2 ATP, was then added and the tubes were incubated for another 15 minutes at 37° C. The reaction was stopped by the addition of 1 ml 14% trichloroacetic acid and the samples were centrifuged at 2,000 xg for 10 minutes. The amount of inorganic phosphate present in an aliquot of supernatant was determined. H^+ K^+ ATPase activity was determined after correcting for the basal (Mg^++ only) enzyme activity present in the membrane preparation.

The next assay concerns acid output. Nature of the assay: Gastric secretion, acid output in pylorus ligated rats. In kind it is in vivo, male Charles River Sprague Dawley derived rats. The settings on record: Example 50, i.d. or s.c., four hours after pylorus ligation, compared to control; for % Acid Secreted at mpK: @ 10 mpK; for response vs control in vivo at 20 mg/kg: @ 20 mpK; for response vs control in vivo at 40 mg/kg: @ 40 mpK. The protocol: The inhibitory activity of the compounds on acid output was tested using pylorus ligation in a modification of the procedure of Shay, H. et al., Gastroenterology 26, 906 (1954). Basically, male Charles River Sprague Dawley derived rats weighing 150-300 grams were deprived of food but not water for 18-24 hours prior to use. Water was withheld during the experiment, however. The rats were weighed, anesthetized with ether and the pylorus ligated according to the method of Shay et al., supra. Treatment or vehicle control was then administered intraduodenally (i.d.) or subcutaneously (s.c.). Rats were housed two/cage and sacrificed with CO2 four hours after ligation. The stomachs were removed, rinsed, and contents emptied into a graduated centrifuge tube. The tubes were centrifuged, the volume of gastric juice recorded, and any samples obviously contaminated by feces, food or blood were eliminated. A 1 ml aliquot of gastric juice was titrated with 0.1N NaOH to a pH of 7.0-7.4. The volume of gastric juice secreted, the acid concentration, and the product of the volume times the concentration, i.e., the total amount of acid secreted, were measured.

[4] abbreviates: Rattus norvegicus, 4 h, read-out: % Acid Secreted at mpK.

SMILES strings stand for the structures.

T1 sequence (P27112 2-1035 limits assumed): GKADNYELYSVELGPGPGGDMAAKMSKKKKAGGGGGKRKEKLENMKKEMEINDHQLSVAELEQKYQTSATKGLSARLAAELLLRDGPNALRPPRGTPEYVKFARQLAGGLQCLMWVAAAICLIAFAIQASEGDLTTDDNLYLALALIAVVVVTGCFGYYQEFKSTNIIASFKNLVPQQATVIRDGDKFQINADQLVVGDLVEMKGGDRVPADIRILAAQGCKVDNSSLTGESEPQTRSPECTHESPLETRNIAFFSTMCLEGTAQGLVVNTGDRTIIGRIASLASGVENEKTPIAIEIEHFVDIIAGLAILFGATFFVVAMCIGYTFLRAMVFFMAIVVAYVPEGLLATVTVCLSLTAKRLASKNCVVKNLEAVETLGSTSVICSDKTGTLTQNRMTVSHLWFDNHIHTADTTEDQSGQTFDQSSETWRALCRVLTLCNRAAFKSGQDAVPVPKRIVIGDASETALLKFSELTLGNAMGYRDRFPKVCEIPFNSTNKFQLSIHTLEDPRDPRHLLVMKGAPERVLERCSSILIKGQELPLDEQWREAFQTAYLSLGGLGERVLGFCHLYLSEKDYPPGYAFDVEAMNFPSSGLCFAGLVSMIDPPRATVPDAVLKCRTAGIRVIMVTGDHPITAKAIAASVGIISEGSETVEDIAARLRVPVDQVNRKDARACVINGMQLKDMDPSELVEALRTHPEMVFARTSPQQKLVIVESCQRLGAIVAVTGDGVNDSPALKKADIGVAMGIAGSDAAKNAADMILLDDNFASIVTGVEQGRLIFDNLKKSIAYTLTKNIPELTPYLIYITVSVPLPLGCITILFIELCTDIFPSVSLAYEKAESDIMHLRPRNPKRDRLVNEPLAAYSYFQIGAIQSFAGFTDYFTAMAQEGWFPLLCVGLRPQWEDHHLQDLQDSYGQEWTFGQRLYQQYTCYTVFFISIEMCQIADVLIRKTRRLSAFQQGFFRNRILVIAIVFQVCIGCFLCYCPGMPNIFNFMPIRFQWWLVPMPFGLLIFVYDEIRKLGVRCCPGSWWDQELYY
T1 sequence (P18597 whole entry partner): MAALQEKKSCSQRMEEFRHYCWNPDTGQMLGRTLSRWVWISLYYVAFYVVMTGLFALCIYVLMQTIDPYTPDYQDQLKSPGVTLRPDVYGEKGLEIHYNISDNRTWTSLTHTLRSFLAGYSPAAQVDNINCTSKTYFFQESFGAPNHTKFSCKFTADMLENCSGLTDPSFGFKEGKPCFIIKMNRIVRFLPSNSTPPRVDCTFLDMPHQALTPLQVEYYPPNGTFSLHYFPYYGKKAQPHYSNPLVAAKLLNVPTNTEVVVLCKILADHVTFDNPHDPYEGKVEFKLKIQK

For the compound `CCCCN(CCCC)CCCOc1cccc(/C=C/c2nc3ccccc3o2)c1` [Example 1], the IC50 came out at 140 nM in assay [1] and 270 nM in assay [2]. The inhibition at 100 µM in assay [3] is 49%. In addition, the “% Acid Secreted at mpK” value with acid output worked out at 52%. Further, the response vs control in vivo at 5 mg/kg with acid output (Rattus norvegicus, 4 h, @ 5 mpK, read-out: % Acid Secreted at mpK) stood at 44%. Besides, the response vs control in vivo at 20 mg/kg in the assay on acid output (setting [4]) was 78%.
Regarding `CN1CCN(CCCOc2cccc(/C=C/c3nc4ccccc4o3)c2)CC1` [Example 2, (E)-2-[2-[3-[3-(4-Methylpiperazino)propoxy]phenyl]ethenyl]benzoxazole], the values for the IC50 in assay [1], in assay [2] and in assay [3] were 410 nM, 1200 nM and 94 µM, respectively. Also, in the assay with acid output (setting [4]), the response vs control in vivo at 20 mg/kg worked out at 9%.
The like results for `CCCN(CCC)CCCOc1cccc(/C=C/c2nc3ccccc3o2)c1` [Example 3, (E)-2-[2-(3-Dipropylaminopropoxyphenyl)ethyenyl]benzoxazole] were, in that order, 240 nM, 200 nM, 29 µM and 49%.
In the case of `C(=C\c1nc2ccccc2o1)/c1cccc(OCCCn2ccnc2)c1` [Example 4], the IC50 in assay [1] amounted to 340 nM; in assay [2], 210 nM; in assay [3], 10 µM. Further, the response vs control in vivo at 20 mg/kg with acid output (setting [4]) worked out at 38%.
Consider `CCCN(CCC)CCCCOc1cccc(/C=C/c2nc3ccccc3o2)c1` [Example 5], for which the IC50 in assay [1] came out at 310 nM; in assay [2], 120 nM; in assay [3], 14 µM. Further, the “% Acid Secreted at mpK” value in the assay with acid output is 25%. The response vs control in vivo at 20 mg/kg with acid output (setting [4]) is 74%.
Turning to `C(=C\c1nc2ccccc2o1)/c1cccc(OCCCCn2ccnc2)c1` [Example 6], the IC50 was found to be 230 nM in assay [1], 280 nM in assay [2] and 13 µM in assay [3]. Also, the response vs control in vivo at 20 mg/kg in the assay on acid output (setting [4]) was 45%.
Turning to `COc1ccc2nc(/C=C/c3cccc(OCCCCn4ccnc4)c3)oc2c1` [Example 7, (E)-2-[2-(3-(1H-Imidazol-1-yl)butoxyphenyl)ethenyl]-6-methoxybenzoxazole], the IC50 was found to be 180 nM in assay [1], 120 nM in assay [2] and 74 µM in assay [3].
Take `CCCCN(CCCC)CCCOc1ccc(/C=C/c2nc3ccccc3o2)cc1` [Example 8, (E)-2-[2-(4-Dibutylaminopropoxyphenyl)ethenyl]benzoxazole]: the IC50 in assay [1] and in assay [2] was 150 nM throughout. Moreover, the inhibition at 100 µM in assay [3] stood at 17%. Further, in the assay on acid output, the “% Acid Secreted at mpK” value was found to be 44%. Further, in the assay on acid output (setting [4]), the response vs control in vivo at 40 mg/kg came out at 96%.
`CCCN(CCC)CCCOc1ccc(/C=C/c2nc3ccccc3o2)cc1` [Example 9, (E)-2-[2-(4-Dipropylaminopropoxyphenyl)ethenyl]benzoxazole]: the figures for the IC50 in assay [1], in assay [2] and in assay [3] were 350 nM, 220 nM and 25 µM, respectively. Also, in the assay on acid output, the “% Acid Secreted at mpK” value is given as 29%. The response vs control in vivo at 20 mg/kg with acid output (setting [4]) was determined as 77%. The response vs control in vivo at 40 mg/kg with acid output (setting [4]) was found to be 97%.
Turning to `C(=C\c1nc2ccccc2o1)/c1ccc(OCCCn2ccnc2)cc1` [Example 10, (E)-2-[2-(4-(1H-Imidazol-1-yl)propoxyphenyl)ethenyl]benzoxazole], the IC50 turned out to be 250 nM in assay [1], 290 nM in assay [2] and 64 µM in assay [3]. The response vs control in vivo at 20 mg/kg in the assay on acid output (setting [4]) turned out to be 26%.
With `CCN(CC)CCCOc1ccc(/C=C/c2nc3ccccc3o2)cc1` [Example 11, (E)-2-[2-(4-Diethylaminopropoxyphenyl)ethenyl]benzoxazole], the IC50 in assay [1] is 980 nM; in assay [2], 320 nM. Also, the inhibition at 100 µM in assay [3] was determined as 20%. Further, in the assay with acid output (setting [4]), the response vs control in vivo at 40 mg/kg was found to be 54%.
As to `C(=C\c1nc2ccccc2o1)/c1ccc(OCCCN2CCCCC2)cc1` [Example 12, (E)-2-[2-[4-(3-Piperidinopropoxy)phenyl]ethenyl]benzoxazole], the IC50 in assay [1] was 150 nM; in assay [2] it was 260 nM; in assay [3], 27 µM. Moreover, the response vs control in vivo at 40 mg/kg in the assay on acid output (setting [4]) was 88%.
Regarding `COc1ccccc1N1CCN(CCCOc2ccc(/C=C/c3nc4ccccc4o3)cc2)CC1` [Example 14], the values for the IC50 in assay [1] and in assay [2] were 800 nM and 600 nM, respectively. Also, the inhibition at 100 µM in assay [3] stood at 43%. In addition, the response vs control in vivo at 20 mg/kg in the assay on acid output (setting [4]) is 8%.
Turning to `CCCCN(CCCC)CCCOc1ccc(/C=C/c2nc3cc(C)ccc3o2)cc1` [Example 15, (E)-2-[2-(4-Dibutylaminopropoxyphenyl)ethenyl]-5-methylbenzoxazole], the values for the IC50 in assay [1], in assay [2] and in assay [3] were 340 nM, 260 nM and 27 µM, respectively. For the same compound, the response vs control in vivo at 40 mg/kg with acid output (setting [4]) turned out to be 88%.
As to `CCCCN(CCCC)CCCOc1ccc(/C=C/c2nc3ccc(OC)cc3o2)cc1` [Example 16, (E)-2-[2-(4-Dibutylaminopropoxyphenyl)ethenyl]-6-methoxybenzoxazole], the IC50 in assay [1] came to 50 nM; in assay [2], 80 nM; in assay [3], 26 µM. The response vs control in vivo at 40 mg/kg in the assay with acid output (setting [4]) was 64%.
Regarding `CCCCN(CCCC)CCOc1ccc(/C=C/c2nc3ccccc3o2)cc1` [Example 17, (E)-2-[2-(4-Dibutylaminoethoxyphenyl)ethenyl]benzoxazole], the IC50 in assay [1] turned out to be 540 nM; in assay [2] it was 260 nM. In addition, the inhibition at 100 µM in assay [3] came out at 43%. The response vs control in vivo at 20 mg/kg in the assay with acid output (setting [4]) came out at 43%.
On to `CCCN(CCC)CCCOc1ccc(/C=C/c2nc3ccccc3s2)cc1` [Example 29, (E)-2-[2-(4-Dipropylaminopropoxyphenyl)ethenyl]benzothiazole], for which the IC50 in assay [1] was 210 nM; in assay [2] it was 260 nM. Moreover, the response vs control in vivo at 20 mg/kg in the assay on acid output (setting [4]) is 30%.
As for `CCN(CC)CCCOc1ccc(/C=C/c2nc3ccccc3s2)cc1` [Example 30, (E)-2-[2-(4-Diethylaminopropoxyphenyl)ethenyl]benzothiazole], the results for the IC50 in assay [1] and in assay [2] were 150 nM and 370 nM, respectively. Further, in the assay with acid output (setting [4]), the response vs control in vivo at 40 mg/kg turned out to be 71%.
With `C(=C\c1nc2ccccc2s1)/c1ccc(OCCCn2ccnc2)cc1` [Example 32, (E)-2-[2-(4-(1H-Imidazol-1-yl)propoxyphenyl)ethenyl]benzothiazole], the IC50 in assay [1] was 340 nM; in assay [2], 130 nM. In addition, the response vs control in vivo at 20 mg/kg in the assay with acid output (setting [4]) was 22%.
`C(=C\c1nc2ccccc2s1)/c1ccc(OCCCCn2ccnc2)cc1` [Example 40, (E)-2-[2-(4-(1H-Imidazol-1-yl)butoxyphenyl)ethenyl]benzothiazole]: the IC50 in assay [1] was 260 nM; in assay [2], 200 nM. For the same compound, the response vs control in vivo at 40 mg/kg in the assay on acid output (setting [4]) came to 17%.
As for `CCCCN(CCCC)CCCOc1ccc(-c2nc3ccccc3s2)cc1` [Example 43, 2-(4-Dibutylaminopropoxyphenyl)benzothiazole], the IC50 in assay [1] stood at 2600 nM; in assay [2], 250 nM; in assay [3] it was 18 µM.
